Measurements from US6358993B1, “Pharmaceutically active nitrogen ring compounds and methods of use thereof” (CeNes Pharmaceuticals, Inc., priority 1996, dated 2002).
Where a name gives a salt, the structure may show the parent alone.

How the values were obtained:
DBA/2 mice = experiment: In vivo anticonvulsant activity in the DBA/2 mouse model (mouse audiogenic assay); settings: 30 minutes before auditory stimulus, inhibition relative to vehicle
Description: As discussed above, preferred compounds of the invention in a standard anticonvulsant in vivo audiogenic test, such as the audiogenic mouse assay of Example 48 which follows, where DBA/2 mice about 20-23 days old are injected intraperitoneally with a test compound 30 minutes prior to being placed in a bell jar with exposure to auditory stimulus of 12 KHz sine wave at 110-120 db. References herein in vivo “audiogenic assay” are intended to refer to that protocol. […] As discussed above, activity in the audiogenic assay has been recognized as indicative that a test compound has neuroprotective properties. See, e.g., M. Tricklebank et al., European Journal of Pharmacology, supra; T. Seyfried, Federation Proceedings, supra.
In vivo Anticonvulsant Activity in the DBA/2 Mouse Model (Mouse Audiogenic Assay)
Compounds were tested for their effectiveness in preventing seizures in DBA/2 mice which have a unique sensitivity to auditory stimulation. Exposure to loud high-frequency sounds can trigger seizure activity in these animals. This sensitivity develops from postnatal day 12 and peaks around day 21 and slowly diminishes as the animals mature. The unusual response to auditory stimulation in this strain of mouse is believed to be due to a combination of early myelination (causing an unusually low excitatory threshold) and delayed development of inhibitory mechanisms.
Mice were injected intraperitoneally with the compound specified in Table I below or with vehicle control, 30 minutes prior to being placed in a bell jar and turning on the auditory stimulus (12 KHz sine wave at 110-120 db). Administered doses are specified in Table I as milligram of compound per kilogram bodyweight of mouse. The auditory stimulus was left on for 60 seconds and mice reactions were timed and recorded. “FB” refers to free base.

mouse audiogenic tests = settings: in vivo; cited from earlier work
in vivo models of stroke = settings: cited from earlier work
[1] = in vivo; cited from earlier work

N=C(Nc1cc(Br)ccc1Br)N1CCCc2ccc(C(F)(F)F)cc21 (as salt: hydrochloride) [Example 35, N-(2,5-dibromophenyl)-(7-trifluoromethyl-1,2,3,4-tetrahydroquinolinyl)carboximidamide Hydrochloride]
melting point: 201 to 202 °C

N=C(N)N1Cc2ccccc2CCc2ccccc21 (as salt: hydrochloride) [Example 41, 5,6,11,12-tetrahydrodibenz[b,f]azocin-carboximidanmide.hydrochloride]
melting point: 238 to 240 °C

N=C(Nc1cccc2ccccc12)N1CCc2ccccc21 [Example 2, N-(1-Naphthyl)-1-indolinylcarboximidamide]
Audiogenic Response % Inhib. (DBA/2 mice; dose 2 mg/kg i.p.): 82%
Audiogenic Response % Inhib. (DBA/2 mice; dose 10 mg/kg i.p.): 100%

CS(=O)(=O)O.N=C(Nc1ccc(OCc2ccccc2)cc1)N1CCc2ccccc21 [Example 4, N-(4-Benzyloxyphenyl)-1-indolinylcarboximidamide.mesylate]
Audiogenic Response % Inhib. (DBA/2 mice; dose 20 mg/kg i.p.): 32%

COc1ccc(NC(=N)N2CCc3ccccc32)c2ccccc12.CS(=O)(=O)O [Example 5, N-(4-Methoxynaphthyl)-1-indolinylcarboxidamide.mesylate]
Audiogenic Response % Inhib. (DBA/2 mice; dose 5 mg/kg i.p.): 50%
Audiogenic Response % Inhib. (DBA/2 mice; dose 10 mg/kg i.p.): 68%
Audiogenic Response % Inhib. (DBA/2 mice; dose 20 mg/kg i.p.): 87%

N=C(Nc1ccc(Cl)c(Cl)c1)N1CCc2ccccc21 [Example 6, N-(3,4-Dichlorophenyl)-1-indolinylcarboximidamide]
Audiogenic Response % Inhib. (DBA/2 mice; dose 10 mg/kg i.p.): 41%
Audiogenic Response % Inhib. (DBA/2 mice; dose 20 mg/kg i.p.): 83%

CCc1cccc2c1N(C(=N)Nc1cccc3ccccc13)CC2 [Example 9, N-(1-Naphthyl)-1-(7-ethyl)-indolinylcarboximidaide]
Audiogenic Response % Inhib. (DBA/2 mice; dose 20 mg/kg i.p.): 28%

Cl.N=C(Nc1cccc(Cl)c1Cl)N1CCc2ccccc21 [Example 11, N-(2,3-dichiorophenyl)-1-indolinylcarboximidamide.HCl]
Audiogenic Response % Inhib. (DBA/2 mice; dose 10 mg/kg i.p.): 55%

Cc1cccc(NC(=N)N2CCc3ccccc32)c1C.Cl [Example 12, N-(2,3-dimethylphenyl)-1-indolinylcarboximidamide.HCl]
Audiogenic Response % Inhib. (DBA/2 mice; dose 2 mg/kg i.p.): 23%
Audiogenic Response % Inhib. (DBA/2 mice; dose 5 mg/kg i.p.): 67%
Audiogenic Response % Inhib. (DBA/2 mice; dose 10 mg/kg i.p.): 88%

Cl.N=C(Nc1cccc2c1CCCC2)N1CCc2ccccc21 [Example 13, N-(5,6,7,8-tetrahydro-1-naphthyl)-1-indolinylcarboximidamide.HCl]
Audiogenic Response % Inhib. (DBA/2 mice; dose 10 mg/kg i.p.): 48%
Audiogenic Response % Inhib. (DBA/2 mice; dose 20 mg/kg i.p.): 80%

CCc1ccc(Cl)c(NC(=N)N2CCCc3ccc(C(F)(F)F)cc32)c1.Cl [Example 19, N-(2-chloro-5-ethylphenyl)-[(7-trifluoromethyl)-1,2,3,4-tetrahydroquinolinyl]carboximidamiide.HCl]
Audiogenic Response % Inhib. (DBA/2 mice; dose 10 mg/kg i.p.): 44%
Audiogenic Response % Inhib. (DBA/2 mice; dose 20 mg/kg i.p.): 91%

Cl.N=C(Nc1cccc2ccccc12)N1CCCc2ccc(C(F)(F)F)cc21 [Example 20]
Audiogenic Response % Inhib. (DBA/2 mice; dose 4 mg/kg i.p.): 13%

Cl.N=C(Nc1cccc2ccccc12)N1CCCc2ccccc21 [Example 21, N-(1-naphthyl)-(1,2,3,4-tetrahydroquinolinyl)carboximidamide.HCl]
Audiogenic Response % Inhib. (DBA/2 mice; dose 1 mg/kg i.p.): 13%
Audiogenic Response % Inhib. (DBA/2 mice; dose 2 mg/kg i.p.): 62%
Audiogenic Response % Inhib. (DBA/2 mice; dose 4 mg/kg i.p.): 88%

Cl.N=C(Nc1cccc(-c2ccccc2)c1)N1Cc2cccc3cccc1c23 [Example 22, N-(3-biphenyl)-1-(benz[cd]indolinyl)carboximdamide.HCl]
Audiogenic Response % Inhib. (DBA/2 mice; dose 10 mg/kg i.p.): 23%

Cc1ccccc1NC(=N)N1Cc2cccc3cccc1c23.Cl [Example 23, N-(2-tolyl)-1-(benz[cd]indolinyl)carboximidamnide.HCl]
Audiogenic Response % Inhib. (DBA/2 mice; dose 1 mg/kg i.p.): 53%
Audiogenic Response % Inhib. (DBA/2 mice; dose 2 mg/kg i.p.): 61%
Audiogenic Response % Inhib. (DBA/2 mice; dose 4 mg/kg i.p.): 95%

Cc1ccc(C)c(NC(=N)N2Cc3cccc4cccc2c34)c1.Cl [Example 25, N-(2,5-dimethylphenyl)-1-benz[cd]indolinylcarboximidamide.HCl]
Audiogenic Response % Inhib. (DBA/2 mice; dose 5 mg/kg i.p.): 59%
Audiogenic Response % Inhib. (DBA/2 mice; dose 10 mg/kg i.p.): 76%

Cc1ccc2c(c1)CCCN2C(=N)Nc1cccc2ccccc12.Cl [Example 33, N-(1-naphthyl)-(6-methyl-1,2,3,4-tetrahydroquinolinyl)carboximidamide Hydrochloride]
Audiogenic Response % Inhib. (DBA/2 mice; dose 4 mg/kg i.p.): 62%

C[C@]12N[C@H](Cc3ccccc31)c1ccccc12 [MK-801]
activity in mouse audiogenic tests (mouse audiogenic tests): good activity
results in in vivo models of stroke (in vivo models of stroke): good results
toxicity [1]: has shown toxicity

N=C(Nc1cccc2ccccc12)N1CCc2ccccc2C1 [N-(1-naphthyl)-1,2,3,4-tetrahydroisoquinolinyl)carboximidamide]
Audiogenic Response % Inhib. (DBA/2 mice; dose 20 mg/kg i.p.): 41%

N-(2-biphenyl)-1-indolinylcarboximidamide.HCl [Example 14]
Audiogenic Response % Inhib. (DBA/2 mice; dose 20 mg/kg i.p.): 56%

N-(5-Acenaphthyl)-1-(5-bromo)-indolinylcarboximidamide [Example 8]
Audiogenic Response % Inhib. (DBA/2 mice; dose 20 mg/kg i.p.): 11%

N-(5-Acenaphthyl)-1-(5-methoxy)-1-indolinylcarboximidamide.HCl [Example 7]
Audiogenic Response % Inhib. (DBA/2 mice; dose 10 mg/kg i.p.): 21%
